Organism: Rattus norvegicus
Assay: Open TG-GATES - Regimen: Single
Assay type: toxicity, organism-based, Sprague-Dawley
Parameters: regimen Single, gender Male, age 6 weeks
Conditions: in vivo, po, 100 mg/kg, route gavage, dose level Low; for APTT / Bas / Eos / Fbg / Hb / Ht / Lym / MCH / MCHC / MCV / Mono / Neu / PT / Plat / RBC / Ret / WBC: tissue Blood; for KIDNEY_L / KIDNEY_R / KIDNEY_TOTAL: tissue Kidney; for LIVER: tissue Liver; for A/G / ALP / ALT / AST / BUN / CRE / Ca / Cl / DBIL / GLC / IP / K / LDH / Na / PL / RALB / TBIL / TC / TG / TP / gamma-GTP: tissue Plasma

CN(C)[C@@H]1C(O)=C(C(N)=O)C(=O)[C@@]2(O)C(O)=C3C(=O)c4c(O)cccc4[C@@](C)(O)[C@H]3C[C@@H]12 [TETRACYCLINE]
TERMINAL_BW (3 h): 185.7 g | APTT (3 h): 16.7 s | Bas (3 h): 0% | Eos (3 h): 0.8% | Fbg (3 h): 197.8 mg/dL | Hb (3 h): 12.8 g/dL | Ht (3 h): 38.5% | Lym (3 h): 84.2% | MCH (3 h): 21.8 pg | MCHC (3 h): 33.2% | MCV (3 h): 65.7 fL | Mono (3 h): 6.4% | Neu (3 h): 9.2% | PT (3 h): 12.1 s | Plat (3 h): 98.5 x10_4/uL | RBC (3 h): 586.6 x10_4/ul | Ret (3 h): 9.8% | WBC (3 h): 101.6 x10_2/uL | KIDNEY_L (3 h): 0.9 g | KIDNEY_R (3 h): 0.9 g | KIDNEY_TOTAL (3 h): 1.9 g | LIVER (3 h): 8.9 g | A/G (3 h): 2.3 | ALP (3 h): 713.6 IU/L | ALT (3 h): 40 IU/L | AST (3 h): 69.4 IU/L | BUN (3 h): 12 mg/dL | CRE (3 h): 0.5 mg/dL | Ca (3 h): 11.1 mg/dL | Cl (3 h): 104 meq/L | DBIL (3 h): 0.036 mg/dL | GLC (3 h): 179.8 mg/dL | IP (3 h): 10.7 mg/dL | K (3 h): 4.9 meq/L | LDH (3 h): 84.2 IU/L | Na (3 h): 137.4 meq/L | PL (3 h): 127.8 mg/dL | RALB (3 h): 3.8 g/dL | TBIL (3 h): 0.4 mg/dL | TC (3 h): 73.8 mg/dL | TG (3 h): 38 mg/dL | TP (3 h): 5.4 g/dL | gamma-GTP (3 h): 1.2 IU/L | TERMINAL_BW (6 h): 184.5 g | APTT (6 h): 16.5 s | Bas (6 h): 0% | Eos (6 h): 0.6% | Fbg (6 h): 199.6 mg/dL | Hb (6 h): 13.2 g/dL | Ht (6 h): 39.9% | Lym (6 h): 80.2% | MCH (6 h): 21.9 pg | MCHC (6 h): 33.2% | MCV (6 h): 66 fL | Mono (6 h): 5.2% | Neu (6 h): 14.4% | PT (6 h): 12.1 s | Plat (6 h): 107 x10_4/uL | RBC (6 h): 607.2 x10_4/ul | Ret (6 h): 10.1% | WBC (6 h): 95.2 x10_2/uL | KIDNEY_L (6 h): 0.9 g | KIDNEY_R (6 h): 0.9 g | KIDNEY_TOTAL (6 h): 1.7 g | LIVER (6 h): 8.3 g | A/G (6 h): 2.2 | ALP (6 h): 880.4 IU/L | ALT (6 h): 36.2 IU/L | AST (6 h): 69.6 IU/L | BUN (6 h): 12.2 mg/dL | CRE (6 h): 0.4 mg/dL | Ca (6 h): 10.8 mg/dL | Cl (6 h): 106 meq/L | DBIL (6 h): 0.02 mg/dL | GLC (6 h): 175.6 mg/dL | IP (6 h): 10.3 mg/dL | K (6 h): 5.1 meq/L | LDH (6 h): 85.2 IU/L | Na (6 h): 137 meq/L | PL (6 h): 139 mg/dL | RALB (6 h): 3.6 g/dL | TBIL (6 h): 0.3 mg/dL | TC (6 h): 82.2 mg/dL | TG (6 h): 32.4 mg/dL | TP (6 h): 5.3 g/dL | gamma-GTP (6 h): 1.6 IU/L | TERMINAL_BW (9 h): 181.6 g | APTT (9 h): 16.5 s | Bas (9 h): 0% | Eos (9 h): 0.4% | Fbg (9 h): 210.6 mg/dL | Hb (9 h): 12.9 g/dL | Ht (9 h): 39.4% | Lym (9 h): 81.8% | MCH (9 h): 21.8 pg | MCHC (9 h): 32.8% | MCV (9 h): 66.4 fL | Mono (9 h): 5.8% | Neu (9 h): 11.6% | PT (9 h): 12.2 s | Plat (9 h): 102.3 x10_4/uL | RBC (9 h): 592.8 x10_4/ul | Ret (9 h): 9.5% | WBC (9 h): 93.6 x10_2/uL | KIDNEY_L (9 h): 0.9 g | KIDNEY_R (9 h): 0.9 g | KIDNEY_TOTAL (9 h): 1.7 g | LIVER (9 h): 7.5 g | A/G (9 h): 2.2 | ALP (9 h): 861 IU/L | ALT (9 h): 32.8 IU/L | AST (9 h): 64 IU/L | BUN (9 h): 13.2 mg/dL | CRE (9 h): 0.4 mg/dL | Ca (9 h): 10.5 mg/dL | Cl (9 h): 105.8 meq/L | DBIL (9 h): 0.022 mg/dL | GLC (9 h): 176.8 mg/dL | IP (9 h): 10.5 mg/dL | K (9 h): 5.1 meq/L | LDH (9 h): 93.8 IU/L | Na (9 h): 138.4 meq/L | PL (9 h): 126.6 mg/dL | RALB (9 h): 3.8 g/dL | TBIL (9 h): 0.3 mg/dL | TC (9 h): 73.4 mg/dL | TG (9 h): 26 mg/dL | TP (9 h): 5.5 g/dL | gamma-GTP (9 h): 1.8 IU/L | TERMINAL_BW (24 h): 196.8 g | APTT (24 h): 16.4 s | Bas (24 h): 0% | Eos (24 h): 0.5% | Fbg (24 h): 218 mg/dL | Hb (24 h): 13.5 g/dL | Ht (24 h): 41.6% | Lym (24 h): 84% | MCH (24 h): 22 pg | MCHC (24 h): 32.4% | MCV (24 h): 67.9 fL | Mono (24 h): 8.5% | Neu (24 h): 7.2% | PT (24 h): 11.9 s | Plat (24 h): 105.1 x10_4/uL | RBC (24 h): 614 x10_4/ul | Ret (24 h): 10.3% | WBC (24 h): 88.6 x10_2/uL | KIDNEY_L (24 h): 0.9 g | KIDNEY_R (24 h): 0.9 g | KIDNEY_TOTAL (24 h): 1.8 g | LIVER (24 h): 9.1 g | A/G (24 h): 2.1 | ALP (24 h): 914 IU/L | ALT (24 h): 34 IU/L | AST (24 h): 64.8 IU/L | BUN (24 h): 17.8 mg/dL | CRE (24 h): 0.5 mg/dL | Ca (24 h): 11.4 mg/dL | Cl (24 h): 104.8 meq/L | DBIL (24 h): 0 mg/dL | GLC (24 h): 188.5 mg/dL | IP (24 h): 10 mg/dL | K (24 h): 5.2 meq/L | LDH (24 h): 97.8 IU/L | Na (24 h): 140.8 meq/L | PL (24 h): 154.2 mg/dL | RALB (24 h): 3.9 g/dL | TBIL (24 h): 0.3 mg/dL | TC (24 h): 86.5 mg/dL | TG (24 h): 66.2 mg/dL | TP (24 h): 5.8 g/dL | gamma-GTP (24 h): 1 IU/L

Source: ChEMBL document CHEMBL3885861, “Open TG-GATES”
